Laboratory results as given in patent US20080194640A1, “Optically Active Tetrahydronaphthalene Derivative” (priority 2005, published 2008).
Values after ≈ are worked out from the molar mass of the structure shown.

Tests used:
[1] = system: C5a stimulated neutrophil; assay: Production of reactive oxygen species in C5a-stimulated neutrophil; format: cell-based; conditions: human neutrophil, C5a 3 nmol/L, luminol luminescence, 37° C.; read-out: IC50 value, inhibition of production of reactive oxygen species in C5a stimulated neutrophil
Method: A neutrophil fraction was separately taken from human peripheral venous blood using Lympholyte-poly (Cedarlane), and suspended in Hank's Balanced Salt Solution (HBSS, GIBCO BRL) containing 1% fetal bovine serum (FBS) and 1 mmol/L luminol (Wako Pure Chemical Industries, Ltd.). Reactive oxygen species was measured using a luminometer (MicroLumat, Berthold) for 96-well plate. […] Then, 25 μL of C5a (final concentration 3 nmol/L) was added and luminescence produced by the reaction of the luminol and the reactive oxygen species was measured with the lapse of time for 15 min. The rate of inhibition (% inhibition) of the production of reactive oxygen species in C5a stimulated neutrophil by the test compound was calculated by the following formula, wherein the peak value of the production of reactive oxygen species derived by C5a without addition of the test compound is Max, the peak value of the production of reactive oxygen species without addition of the test compound and without C5a stimulation is Min, and the peak value of the production of reactive oxygen species derived by C5a with the addition of the test compound is Test. […]

[2] = Evaluation of biological availability (bioavailability) in rat; format: in vivo; conditions: for AUC: rat, fasted female SD rats, plasma
Method: Free base•Form-I crystal was administered to female SD rats fasted from the day before the experiment and the plasma concentration was measured under the following conditions. As a result, the areas under blood concentration-time curve (AUC) of the drug after intravenous administration and oral administration are as shown in Table 1.
• Dosing formulation: 0.5 mg/ml in aqueous physiological saline. • Dose: 1 mg/2 ml/kg • Administration method: bolus administration from the tail vein Collection of blood samples: About 0.1-0.2 mL of blood was taken from the cervical vein at 3 min, 10 min, 30 min, 1 hr, 2 hr, 4 hr and 6 hr after administration. The blood was centrifuged, and the plasma was separated.
• Dosing formulation: 2 mg/ml suspension adjusted by gradually adding aqueous hydroxypropylmethylcellulose solution to the compound of the present invention thoroughly triturated in an agate mortar. • Dose: 10 mg/5 ml/kg • Administration method: Forcible administration into the stomach • Collection of blood samples: About 0.1-0.2 mL of blood was taken from the cervical vein at 30 min, 1 hr, 2 hr, 4 hr, 6 hr, 8 hr and 24 hr after administration. The blood was centrifuged, and the plasma was separated.
The plasma concentration of the administered compound was measured by LC-MS/MS.
LC conditions • Column: Capcellpak C18 UG-120 (2.0φ mm×50 mm, S-5 μm, Shiseido Co., Ltd.) • Mobile phase: acetonitrile • Flow rate: 0.25 mL/min • Column temperature: room temperature • Auto sampler temperature set to: 25° C. • Gradient setting: • 0 min→0.6 min:25%→25% • 0.6 min→3.6 min:25%→75% • 3.6 min→6 min:75%→75% • 6 min→6.1 min:75%→25% • 6.1 min→9.5 min:25%→25% • MS/MS conditions • Ionization method: ESI • Capillary temperature: 350° C. • Sheath gas pressure: 80 psi • Spray voltage: 4.5 kV.
The plasma concentration of the racemate was measured by a similar method, and the biological availability was calculated and found to be 20%.

[3] = Solubility test (Japanese Pharmacopoeia Solution 2); format: physicochemical; conditions: pH 6.8, aqueous buffer, thermodynamic from solid; Japanese Pharmacopoeia Solution 2, 37° C., shaken 30 min; read-out: solubility after 30 min
Method: An adequate amount of a sample was taken, and a test solution (The Japanese Pharmacopoeia Solution 2) was added to each to a concentration of about 1 mg/ml. The sample was dispersed by ultrasonication for 2 min, shaken at 37° C. for 30 min, and the solution was filtered through DISMIC13HP ([…]). The filtrate in the early stage (3 ml) was removed, the subsequent filtrate (500 μl) was precisely measured, and the dilution solution (water/acetonitrile/trifluoroacetic acid mixture=500:500:1, 500 μl) was accurately added to give a sample solution. The sample solution and the standard solution prepared in Experimental Example 5 were subjected to the measurement under the similar HPLC conditions as in Experimental Example 5.

`CCn1cc(CN(C(=O)C2CCCc3c(O)cccc32)c2ccc(C(C)C)nc2)cn1` (racemic) [racemate of the compound of Example 3, N-[(1-ethyl-1H-pyrazol-4-yl)methyl]-5-hydroxy-N-(6-isopropylpyridin-3-yl)-1,2,3,4-tetrahydronaphthalene-1-carboxamide, reference compound] gave an IC50 [1] of 5.9 nM, a biological availability ([2]; female SD rats, oral 10 mg/kg vs intravenous 1 mg/kg) of 20% and an AUC ([2]; intravenous administration 1 mg/kg) of 289 ng·h/mL. For the same molecule, the AUC ([2]; oral administration 10 mg/kg) was 572 ng·h/mL and the solubility at 30 min [3] was 31 µg/mL (≈ 74.1 µM).
